Reference: ChEMBL document CHEMBL2385025, “Detour of prenostodione synthesis towards pyrazolones for antibacterial activity” (2013)

Legend:
[1] = test system: Staphylococcus epidermidis; assay: Growth inhibition of Staphylococcus epidermidis 1457 at 50 uM relative to control; type: functional; conditions: read-out: GI
[2] = test system: Staphylococcus aureus; assay: Inhibition of biofilm formation of Staphylococcus aureus MRSA 1094 at 50 uM by crystal violet staining-based spectrophotometric analysis relative to control
[3] = test system: Staphylococcus aureus; assay: Inhibition of biofilm formation of Staphylococcus aureus ATCC 35556 at 50 uM by crystal violet staining-based spectrophotometric analysis relative to control; type: functional
[4] = test system: Staphylococcus epidermidis; assay: Inhibition of biofilm formation of Staphylococcus epidermidis 1457 at 50 uM by crystal violet staining-based spectrophotometric analysis relative to control; type: functional
[5] = test system: Pseudomonas aeruginosa; assay: Growth inhibition of Pseudomonas aeruginosa PAO1 at 50 uM relative to control; type: functional; conditions: read-out: GI
[6] = test system: Staphylococcus aureus; assay: Growth inhibition of Staphylococcus aureus ATCC 35556 at 50 uM relative to control; type: functional; conditions: read-out: GI
[7] = test system: Staphylococcus aureus; assay: Growth inhibition of Staphylococcus aureus MRSA 1094 at 50 uM relative to control; conditions: read-out: GI
[8] = test system: Pseudomonas aeruginosa; assay: Inhibition of biofilm formation of Pseudomonas aeruginosa PAO1 at 50 uM by crystal violet staining-based spectrophotometric analysis relative to control; type: functional
[9] = test system: Staphylococcus epidermidis; assay: Inhibition of biofilm formation of Staphylococcus epidermidis GTC 18972 at 50 uM by crystal violet staining-based spectrophotometric analysis relative to control; type: functional
[10] = test system: Staphylococcus epidermidis; assay: Growth inhibition of Staphylococcus epidermidis GTC 18972 at 50 uM relative to control; type: functional; conditions: read-out: GI
[11] = test system: Staphylococcus aureus; assay: Growth inhibition of methicillin-sensitive Staphylococcus aureus at 50 uM relative to control; type: functional; conditions: read-out: GI
[12] = test system: Staphylococcus aureus; assay: Inhibition of biofilm formation of methicillin-sensitive Staphylococcus aureus at 50 uM by crystal violet staining-based spectrophotometric analysis relative to control; type: functional

`COC(=O)CC1=NN(c2ccccc2)C(=O)/C1=C\c1ccc(O)cc1` showed an inhibition of growth at 50 µM [1] of 15%, an inhibition at 50 µM [2] of -7.01% and an inhibition at 50 µM [3] of -0.723%. It also gave an inhibition at 50 µM [4] of 3.69%, an inhibition of growth at 50 µM [5] of 14.1% and an inhibition of growth at 50 µM [6] of -7.76%. It also gave an inhibition of growth at 50 µM [7] of 7.95%, an inhibition at 50 µM [8] of -5.96% and an inhibition at 50 µM [9] of 2.6%. For the same compound, the inhibition of growth at 50 µM [10] was 30.2%, the inhibition of growth at 50 µM [11] was -5.33% and the inhibition at 50 µM [12] was 9.96%.

`COC(=O)CC1=NN(c2ccccc2)C(=O)/C1=C\c1cc(OC)c(OC)c(OC)c1` showed an inhibition of growth at 50 µM [1] of 15.8%, an inhibition at 50 µM [2] of 2.88% and an inhibition at 50 µM [3] of 31.2%. For the same compound, the inhibition at 50 µM [4] was 10.6%, the inhibition of growth at 50 µM [5] was -0.864% and the inhibition of growth at 50 µM [6] was -3.34%. For the same compound, the inhibition of growth at 50 µM [7] was 20.9%, the inhibition at 50 µM [8] was 11% and the inhibition at 50 µM [9] was 12.8%. The inhibition of growth at 50 µM [10] was 33.8%, the inhibition of growth at 50 µM [11] was 1.49% and the inhibition at 50 µM [12] was 19.8%.

`COC(=O)CC1=NN(c2ccccc2)C(=O)/C1=C\c1ccc(Cl)cc1` gave an inhibition of growth at 50 µM [1] of 23.1%, an inhibition at 50 µM [2] of 21.5% and an inhibition at 50 µM [3] of 88.1%. It also gave an inhibition at 50 µM [4] of 6.08%, an inhibition of growth at 50 µM [5] of -5.15% and an inhibition of growth at 50 µM [6] of 10.3%. The inhibition of growth at 50 µM [7] was 38%, the inhibition at 50 µM [8] was 9.68% and the inhibition at 50 µM [9] was 20.4%. For the same compound, the inhibition of growth at 50 µM [10] was 32.4%, the inhibition of growth at 50 µM [11] was 21.9% and the inhibition at 50 µM [12] was 86.7%.

`COC(=O)CC1=NN(c2ccccc2)C(=O)/C1=C\c1c[nH]c2ccccc12` showed an inhibition of growth at 50 µM [1] of -7.59%, an inhibition at 50 µM [2] of -126% and an inhibition at 50 µM [3] of 62%. For the same compound, the inhibition at 50 µM [4] was 47.7%, the inhibition of growth at 50 µM [5] was -10.8% and the inhibition of growth at 50 µM [6] was -19.7%. It also gave an inhibition of growth at 50 µM [7] of 0.914%, an inhibition at 50 µM [8] of -38.5% and an inhibition at 50 µM [9] of 54.5%. It also gave an inhibition of growth at 50 µM [10] of -2.37%, an inhibition of growth at 50 µM [11] of -19.4% and an inhibition at 50 µM [12] of 8.02%.

Compound `COC(=O)CC1=NN(c2ccccc2)C(=O)/C1=C\c1ccco1` has an inhibition of growth at 50 µM [1] of 13.9%, an inhibition at 50 µM [2] of -167% and an inhibition at 50 µM [3] of 6.49%. For the same compound, the inhibition at 50 µM [4] was 9.86%, the inhibition of growth at 50 µM [5] was -14.8% and the inhibition of growth at 50 µM [6] was -15.4%. The inhibition of growth at 50 µM [7] was 20.4%, the inhibition at 50 µM [8] was 13.9% and the inhibition at 50 µM [9] was 12.1%. The inhibition of growth at 50 µM [10] was 25.9%, the inhibition of growth at 50 µM [11] was -5.33% and the inhibition at 50 µM [12] was -15.6%.

`COC(=O)CC1=NN(c2ccccc2)C(=O)/C1=C\c1ccc(N(C)C)cc1` was tested, and the inhibition of growth at 50 µM [1] was 9.19%, the inhibition at 50 µM [2] was 35.9% and the inhibition at 50 µM [3] was 9.7%. It also gave an inhibition at 50 µM [4] of 1.24%, an inhibition of growth at 50 µM [5] of 2.45% and an inhibition of growth at 50 µM [6] of -18.4%. It also gave an inhibition of growth at 50 µM [7] of 11.5%, an inhibition at 50 µM [8] of -79.8% and an inhibition at 50 µM [9] of 3.75%. It also gave an inhibition of growth at 50 µM [10] of 27.7%, an inhibition of growth at 50 µM [11] of -11.4% and an inhibition at 50 µM [12] of -27.3%.

Work on `COC(=O)CC1=NN(c2ccccc2)C(=O)/C1=C\c1ccsc1` yielded an inhibition of growth at 50 µM [1] of 14.3%, an inhibition at 50 µM [2] of -23.8% and an inhibition at 50 µM [3] of 0.355%. The inhibition at 50 µM [4] was 2.03%, the inhibition of growth at 50 µM [5] was 10.8% and the inhibition of growth at 50 µM [6] was -17.5%. The inhibition of growth at 50 µM [7] was 15%, the inhibition at 50 µM [8] was -4.41% and the inhibition at 50 µM [9] was 10.8%. It also gave an inhibition of growth at 50 µM [10] of 33.8%, an inhibition of growth at 50 µM [11] of -3.06% and an inhibition at 50 µM [12] of -5.79%.

Work on `COC(=O)CC1=NN(c2ccccc2)C(=O)/C1=C\c1ccc(OC)cc1OC` yielded an inhibition of growth at 50 µM [1] of -1.75%, an inhibition at 50 µM [2] of 37.6% and an inhibition at 50 µM [3] of 1.53%. It also gave an inhibition at 50 µM [4] of -0.983%, an inhibition of growth at 50 µM [5] of -3.78% and an inhibition of growth at 50 µM [6] of -5.55%. The inhibition of growth at 50 µM [7] was -0.169%, the inhibition at 50 µM [8] was -31.1% and the inhibition at 50 µM [9] was -5.55%. It also gave an inhibition of growth at 50 µM [10] of 20.5%, an inhibition of growth at 50 µM [11] of -6.08% and an inhibition at 50 µM [12] of -61.9%.

Work on `COC(=O)CC1=NN(c2ccccc2)C(=O)/C1=C\c1ccccc1Br` yielded an inhibition of growth at 50 µM [1] of 32.4%, an inhibition at 50 µM [2] of 87.9% and an inhibition at 50 µM [3] of 65.8%. The inhibition at 50 µM [4] was 50.8%, the inhibition of growth at 50 µM [5] was 9.21% and the inhibition of growth at 50 µM [6] was -6.96%. It also gave an inhibition of growth at 50 µM [7] of 53.5%, an inhibition at 50 µM [8] of -22.9% and an inhibition at 50 µM [9] of 82.6%. For the same compound, the inhibition of growth at 50 µM [10] was 55%, the inhibition of growth at 50 µM [11] was 8.69% and the inhibition at 50 µM [12] was 46.5%.

Work on `CCOc1ccc(/C=C2\C(=O)N(c3ccccc3)N=C2CC(=O)OC)cc1OC` yielded an inhibition of growth at 50 µM [1] of 4.08%, an inhibition at 50 µM [2] of 15.2% and an inhibition at 50 µM [3] of 34%. For the same compound, the inhibition at 50 µM [4] was -1.83%, the inhibition of growth at 50 µM [5] was -1.25% and the inhibition of growth at 50 µM [6] was -2.46%. The inhibition of growth at 50 µM [7] was 2.81%, the inhibition at 50 µM [8] was -5.61% and the inhibition at 50 µM [9] was 15.6%. It also gave an inhibition of growth at 50 µM [10] of 22%, an inhibition of growth at 50 µM [11] of -0.402% and an inhibition at 50 µM [12] of 57.8%.
